Residues, ends and D or L forms follow the SMILES beside them. *: point of attachment. Cbz = O=C(OCc1ccccc1)*; CH2F = FC*
Key:
RIPK1 [1] = molecular target: T1, RIPK1 (Mus musculus, UniProt Q60855); assay: RIPK1 degradation by Western blot in B16F10 cells; type: cell-based; details: 4 h pretreatment followed by LD4172
T1 construct: endogenous in cells; host or cells: B16F10
T1 sequence (Q60855 1-656): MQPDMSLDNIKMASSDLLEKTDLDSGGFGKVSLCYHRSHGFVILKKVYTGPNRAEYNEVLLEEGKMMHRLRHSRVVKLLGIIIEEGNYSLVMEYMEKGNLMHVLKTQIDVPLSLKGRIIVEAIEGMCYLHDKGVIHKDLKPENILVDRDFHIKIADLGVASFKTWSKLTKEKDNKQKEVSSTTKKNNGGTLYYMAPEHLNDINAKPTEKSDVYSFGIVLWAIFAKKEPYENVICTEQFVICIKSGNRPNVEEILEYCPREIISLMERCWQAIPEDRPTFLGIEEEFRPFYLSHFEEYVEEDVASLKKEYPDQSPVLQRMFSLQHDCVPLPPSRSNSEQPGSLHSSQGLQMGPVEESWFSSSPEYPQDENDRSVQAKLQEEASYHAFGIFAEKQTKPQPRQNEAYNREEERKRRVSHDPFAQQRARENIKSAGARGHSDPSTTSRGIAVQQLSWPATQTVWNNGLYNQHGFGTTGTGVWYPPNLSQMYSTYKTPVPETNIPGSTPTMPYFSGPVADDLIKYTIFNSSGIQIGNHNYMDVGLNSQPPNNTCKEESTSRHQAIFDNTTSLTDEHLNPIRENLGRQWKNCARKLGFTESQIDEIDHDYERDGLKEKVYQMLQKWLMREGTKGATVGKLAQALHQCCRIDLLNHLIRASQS
Method: (§1) Cells were seeded into six-well plates at a density of 5 × 10^5 cells/mL in 2 mL of complete culture medium. Following an overnight adaptation period, cells were treated with serially diluted LD4172 compounds for 24 h. After treatment, whole-cell lysates were prepared using a lysis buffer (1×RIPA supplemented with protease and phosphatase inhibitor cocktail). Protein concentrations in the lysates were measured using the BCA protein assay. Subsequently, equal amounts of protein (20 µg) from each sample were loaded onto a sodium dodecyl sulfate-polyacrylamide gel and separated by electrophoresis (Bio-Rad) at 120 V for 1.5 h. The separated proteins were then transferred to a polyvinylidene fluoride (PVDF) membrane using a Transblot Turbo system (Bio-Rad).
(§2) After blocking for 1 h at room temperature in 1% BSA-TBST, the membranes were incubated overnight at 4 °C with specific primary antibodies (diluted at 1:1000 in TBST) targeting the proteins of interest, including anti-RIPK1 (3493, Cell Signaling Technology (CST)), anti-cleaved caspase 3 (9661, CST), anti-cleaved caspase7 (8438, CST), anti-cleaved PARP (5625, CST), anti-HMGB1 (3935, CST), anti-calreticulin (12238, CST), and anti-β-actin (4970, CST). […] All western blots were processed and quantified using ImageJ software, and protein levels were normalized to β-actin loading controls.

RIPK1 [2] = molecular target: T2, RIPK1 (Homo sapiens, UniProt Q13546); assay: RIPK1 degradation by Western blot in Jurkat cells; type: cell-based; details: 4 h pretreatment followed by LD4172
T2 construct: whole-cell lysates were prepared using a lysis buffer; endogenous in cells; host or cells: Jurkat
T2 sequence (Q13546 1-671): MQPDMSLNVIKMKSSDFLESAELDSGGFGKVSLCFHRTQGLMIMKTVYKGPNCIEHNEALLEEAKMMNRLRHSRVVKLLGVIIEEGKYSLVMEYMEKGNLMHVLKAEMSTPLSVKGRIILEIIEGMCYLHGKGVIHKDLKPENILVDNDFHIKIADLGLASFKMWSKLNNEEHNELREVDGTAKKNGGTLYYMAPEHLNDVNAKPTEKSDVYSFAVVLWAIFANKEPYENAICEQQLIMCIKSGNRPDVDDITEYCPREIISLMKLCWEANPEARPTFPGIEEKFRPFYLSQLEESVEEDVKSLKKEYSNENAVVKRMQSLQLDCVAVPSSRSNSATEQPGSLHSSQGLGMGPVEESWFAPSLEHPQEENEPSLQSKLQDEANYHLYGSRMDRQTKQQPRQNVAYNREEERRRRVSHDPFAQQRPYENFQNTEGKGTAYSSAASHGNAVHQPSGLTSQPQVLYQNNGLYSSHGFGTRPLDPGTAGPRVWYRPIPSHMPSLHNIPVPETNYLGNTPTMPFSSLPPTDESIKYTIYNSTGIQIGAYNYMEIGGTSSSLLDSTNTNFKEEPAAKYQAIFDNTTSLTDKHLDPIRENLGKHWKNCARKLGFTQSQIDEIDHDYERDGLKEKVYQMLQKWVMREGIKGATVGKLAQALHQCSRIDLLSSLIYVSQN
Method: as §1, §2

NF-κB = NF-κB reporter assay in B16F10 cells; type: cell-based, mouse; details: TNFα 100 ng/mL, compound 1 μM
Method: One million B16F10 cells were seeded in T25 flask. The next day, cells were transfected with the NanoLuc Reporter Vector with NF-κB Response Element (pNL3.2.NF-kB-RE; Promega; Cat. No. N1111) using Lipofectamine 3000 transfection reagent (Invitrogen) at a ratio of 1:3, DNA:Lipofectamine. After 24 h, cells were collected and seeded at 2000 cells per well in triplicate in an opaque 96 well plate. 24 h later the media was discarded and replaced with fresh DMEM media and treated with indicated cytokine cocktail for 24 h. Reporter expression was read out using the Nano-Glo Luciferase Assay System (Promega) according to the manufacturer’s instruction.

B16F10 cells = assay: TNFα-mediated apoptosis in B16F10 cells (Annexin V/PI, caspase 3/7, PARP); type: cell-based, mouse; details: 72 h
Method: Fig. 3 LD4172 sensitizes B16F10 cells to TNFα-mediated apoptosis. B16F10 cells were treated with or without TNFα (100 ng/mL), Z-VAD-FMK (25 μM), LD4172 (1 μM), and/or T2I (1 μM) for 72 h. A NF-κB activity in B16F10 cells expressing a NanoLuc reporter for NF-κB response. Data represent the mean NF-κB activity ± SD (n = 3 biologically independent samples from two independent experiments). Statistical significance was determined using a two-tailed unpaired t-test, with P values indicated. B Representative flow cytometry dot plots showing apoptosis in B16F10 cells from three independent experiments (n = 3 biologically independent samples per experiment). […] Cell death was quantified by PI uptake using the Cytation 5 imager. D Top: Percentage of PI+ B16F10 cells after 72 h of the indicated treatments, calculated as PI+ (%) = (Number of PI+ cells/Total cells) × 100%, using the Cytation 5 imager. […] Statistical significance was determined using a two-tailed unpaired t-test, with P values indicated. […] E Top: Quantification of extracellular ATP levels secreted by B16F10 cells. Data represent mean extracellular ATP levels ± SD (n = 4 biologically independent samples from one experiment), with statistical significance determined by a two-tailed unpaired t-test, and P values indicated. […]

B16F10 tumors = assay: B16F10 syngeneic tumor model; type: in vivo, C57BL/6J mice; details: compound 20 mg/kg i.p. daily plus anti-PD1 100 µg every 3 days
Method: To establish a syngeneic mouse model, 3 × 10^5 B16F10 cells resuspended in PBS were mixed 1:1 with Matrigel (354262, Corning) and subcutaneously injected into the right flank of 7-week-old wild-type female C57BL/6J mice on day 0. Tumor sizes were measured on day 6, and mice were grouped such that the average tumor volume was ~100 mm³. Treatments began on day 7. Antibodies, including anti-PD1 (100 μg, BE0146, BioXcell) and anti-CD8 (500 μg, BE0004, BioXcell), were administered intraperitoneally every 3 days in 100 μL volumes. The RIPK1 degrader LD4172 and RIPK1 kinase inhibitor T2I were delivered in 200 μL of vehicle solution (30% PEG400, 5% Tween-80, 5% DMSO) daily via intraperitoneal injection (20 mg/kg). T-cell depletion or blocking was confirmed by flow cytometry in tumor-bearing mice. Tumors were measured every 3 days starting from day 7 post-injection until euthanasia. Mice were euthanized via CO2 inhalation when the tumor size reached 1.5 cm in the longest dimension or if severe necrosis was observed. Tumor volume was calculated using the formula: (L × W ²)/2, where L represents the length and W the width. To comply with ethical guidelines and ensure data quality, animals were humanely euthanized either when tumors reached the maximum permitted size or immediately before flow cytometry analysis, which required fresh tumor tissues. […]

| LD4172-induced RIPK1 degradation after pretreatment (RIPK1 [1]) | LD4172-induced RIPK1 degradation after pretreatment (RIPK1 [2]) | Structure (SMILES) | other results |
| --- | --- | --- | --- |
| reversed | reversed | NS(=O)(=O)OC[C@@H]1C[C@@H](n2ccc3c(N[C@H]4CCc5ccccc54)ncnc32)C[C@@H]1O [MLN4924] |  |
|  |  | CCn1cc(-c2ccc3c(c2)CCN3C(=O)Cc2cccc(OC(F)(F)F)c2)c2c(N)ncnc21 [T2I] | TNF-α-induced NF-κB activity (NF-κB): not; TNFα-mediated apoptosis (B16F10 cells; TNFα 100 ng/mL, compound 1 μM): did not trigger TNFα-mediated apoptosis; tumor response in combination with anti-PD1 (B16F10 tumors): failed to sensitize B16F10 tumors to anti-PD1 treatment |
|  |  | COC(=O)C[C@H](NC(=O)[C@H](C)NC(=O)[C@@H](NC(=O)OCc1ccccc1)C(C)C)C(=O)CF [Z-VAD-FMK] (Cbz-Val-Ala-Asp(OMe)-CH2F) | reversal of apoptosis induced by TNFα and LD4172 (B16F10 cells; Z-VAD-FMK 25 μM): reversed |
| reversed | reversed | CC(C)C[C@H](NC(=O)[C@H](CCc1ccccc1)NC(=O)CN1CCOCC1)C(=O)N[C@@H](Cc1ccccc1)C(=O)N[C@@H](CC(C)C)C(=O)[C@@]1(C)CO1 [carfilzomib] |  |

From publication PMC11649918, “Development of a RIPK1 degrader to enhance antitumor immunity” (Nature Communications, 2024)
